Where two headings read alike, the source gives them in different places.
Molecular target: indoleamine 2, 3-dioxygenase (IDO1) (Homo sapiens, UniProt P14902)
Experiment: PBMC IDO1 assay (kynurenine via mass spectrometry)
Type: cell-based
Protocol: Compounds of the present invention were tested via high-throughput cellular assays utilizing detection of kynurenine via mass spectrometry and cytotoxicity as end-points. For the mass spectrometry and cytotoxicity assays, human peripheral blood mononuclear cells (PBMC) (PB003F; AllCells®, Alameda, Calif.) were stimulated with human interferon-γ (IFN-γ) (Sigma-Aldrich Corporation, St. Louis, Mo.) and lipopolysaccharide from Salmonella minnesota (LPS) (Invivogen, San Diego, Calif.) to induce the expression of indoleamine 2, 3-dioxygenase (IDO1). Compounds with IDO1 inhibitory properties decreased the amount of kynurenine produced by the cells via the tryptophan catabolic pathway. Cellular toxicity due to the effect of compound treatment was measured using CellTiter-Glo® reagent (CTG) (Promega Corporation, Madison, Wis.), which is based on luminescent detection of ATP, an indicator of metabolically active cells.
In preparation for the assays, test compounds were serially diluted 3-fold in DMSO from a typical top concentration of 5 mM and plated at 0.5 μL in 384-well, polystyrene, clear bottom, tissue culture treated plates with lids (Greiner Bio-One, Kremsmünster, Austria) to generate 11-point dose response curves. Low control wells (0% kynurenine or 100% cytotoxicity) contained either 0.5 μL of DMSO in the presence of unstimulated (-IFN-γ/-LPS) PBMCs for the mass spectrometry assay or 0.5 μL of DMSO in the absence of cells for the cytotoxicity assay, and high control wells (100% kynurenine or 0% cytotoxicity) contained 0.5 μL of DMSO in the presence of stimulated (+IFN-γ/+LPS) PBMCs for both the mass spectrometry and cytotoxicity assays.
Frozen stocks of PBMCs were washed and recovered in RPMI 1640 medium (Thermo Fisher Scientific, Inc., Waltham, Mass.) supplemented with 10% v/v heat-inactivated fetal bovine serum (FBS) (Thermo Fisher Scientific, Inc., Waltham, Mass.), and 1× penicillin-streptomycin antibiotic solution (Thermo Fisher Scientific, Inc., Waltham, Mass.). The cells were diluted to 1,000,000 cells/mL in the supplemented RPMI 1640 medium. 50 μL of either the cell suspension, for the mass spectrometry assay, or medium alone, for the cytotoxicity assay, were added to the low control wells, on the previously prepared 384-well compound plates, resulting in 50,000 cells/well or 0 cells/well respectively. IFN-γ and LPS were added to the remaining cell suspension at final concentrations of 100 ng/ml and 50 ng/ml respectively, and 50 μL of the stimulated cells were added to all remaining wells on the 384-well compound plates. The plates, with lids, were then placed in a 37° C., 5% CO2 humidified incubator for 2 days.
Following incubation, the 384-well plates were removed from the incubator and allowed to equilibrate to room temperature for 30 minutes. For the cytotoxicity assay, CellTiter-Glo® was prepared according to the manufacturer's instructions, and 40 μL were added to each plate well. After a twenty minute incubation at room temperature, luminescence was read on an EnVision® Multilabel Reader (PerkinElmer Inc., Waltham, Mass.). For the mass spectrometry assay, 10 μL of supernatant from each well of the compound-treated plates were added to 40 μL of acetonitrile, containing 10 μM of an internal standard for normalization, in 384-well, polypropylene, V-bottom plates (Greiner Bio-One, Kremsmünster, Austria) to extract the organic analytes. Following centrifugation at 2000 rpm for 10 minutes, 10 μL from each well of the acetonitrile extraction plates were added to 90 μL of sterile, distilled H2O in 384-well, polypropylene, V-bottom plates for analysis of kynurenine and the internal standard on the RapidFire 300 (Agilent Technologies, Santa Clara, Calif.) and 4000 QTRAP MS (SCIEX, Framingham, Mass.). MS data were integrated using Agilent Technologies' RapidFire Integrator software, and data were normalized for analysis as a ratio of kynurenine to the internal standard. […]

[1] = human PBMC stimulated with IFN-γ and LPS, 2 days, kynurenine by mass spectrometry, recorded as pIC50, read-out: PBMC PXC50_ (converted)

Chain of indoleamine 2, 3-dioxygenase (IDO1) (P14902 whole entry): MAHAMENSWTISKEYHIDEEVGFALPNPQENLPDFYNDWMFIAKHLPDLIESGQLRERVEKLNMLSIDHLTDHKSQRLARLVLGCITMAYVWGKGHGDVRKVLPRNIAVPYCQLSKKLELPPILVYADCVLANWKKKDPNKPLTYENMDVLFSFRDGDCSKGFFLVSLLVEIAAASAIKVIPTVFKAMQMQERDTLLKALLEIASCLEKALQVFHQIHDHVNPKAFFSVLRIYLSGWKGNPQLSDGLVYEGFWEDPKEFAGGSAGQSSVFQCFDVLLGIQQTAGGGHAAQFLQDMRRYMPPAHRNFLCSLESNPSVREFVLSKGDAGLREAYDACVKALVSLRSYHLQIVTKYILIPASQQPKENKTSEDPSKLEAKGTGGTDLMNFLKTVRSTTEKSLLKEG

| IC50 [1] [nM] | Compound | IC50 [nM] |
| --- | --- | --- |
| 316 | Cc1c(F)cccc1OC(=O)N1CCC([C@@H](CCCO)NC(=O)c2ccc(F)cc2)CC1 [Example 80, 3-fluoro-2-methylphenyl 4-[(1R)-1-[(4-fluorophenyl)formamido]-4-hydroxybutyl]piperidine-1-carboxylate] | – |
| 398 | O=C(NC(C1CC1)C1CCN(C(=O)Oc2ccncc2)CC1)c1ccc(F)cc1 (centres unmarked) [Example 81, pyridin-4-yl 4-{cyclopropyl[(4-fluorophenyl)formamido]methyl}piperidine-1-carboxylate] | – |
| 398 | CC(C)OCC(NC(=O)c1ccc(F)cc1)C1CCN(C(=O)Oc2ccccc2)CC1 (centres unmarked) [Example 82, phenyl 4-{1-[(4-fluorophenyl)formamido]-2-(propan-2-yloxy)ethyl}piperidine-1-carboxylate] | – |
| 501 | CC(C)CC(NC(=O)c1nnc(Cl)s1)C1CCN(C(=O)Oc2ccccc2)CC1 (centres unmarked) [Example 83, phenyl 4-{1-[(5-chloro-1,3,4-thiadiazol-2-yl)formamido]-3-methylbutyl}piperidine-1-carboxylate] | – |
| 501 | CC(C)CC(NC(=O)c1ccc(F)cc1)C1CCN(C(=O)OC2CCNc3ccccc32)CC1 (centres unmarked) [Example 84, 1,2,3,4-tetrahydroquinolin-4-yl 4-{1-[(4-fluorophenyl)formamido]-3-methylbutyl}piperidine-1-carboxylate] | – |
| 631 | CC(C)(C)OC(=O)N1CCC(C(NC(=O)c2cccc3cc[nH]c23)c2ccccc2)CC1 (centres unmarked) [Example 85, tert-butyl 4-{[(1H-indol-7-yl)formamido](phenyl)methyl}piperidine-1-carboxylate] | – |
| 631 | COc1cc(OC(=O)N2CCC(C(NC(=O)c3ccc(F)cc3)C3CC3)CC2)ccn1 (centres unmarked) [Example 86, 2-methoxypyridin-4-yl 4-{cyclopropyl[(4-fluorophenyl)formamido]methyl}piperidine-1-carboxylate] | – |
| 631 | O=C(NC(c1ccccc1)C1CCN(C(=O)Oc2ccccc2)CC1)c1ccc(C(F)(F)F)cn1 (centres unmarked) [Example 88, phenyl 4-[phenyl({[5-(trifluoromethyl)pyridin-2-yl]formamido})methyl]piperidine-1-carboxylate] | – |
| 631 | N#Cc1ccc(C(=O)NC(c2ccccc2)C2CCN(C(=O)Oc3ccccc3)CC2)nc1 (centres unmarked) [Example 89, phenyl 4-{[(5-cyanopyridin-2-yl)formamido](phenyl)methyl}piperidine-1-carboxylate] | – |
| 631 | O=C(N[C@@H](C1CC1)C1CCN(C(=O)Oc2ccccc2)CC1)c1ccc(Cl)s1 [Example 91, phenyl 4-[(S)-[(5-chlorothiophen-2-yl)formamido](cyclopropyl)methyl]piperidine-1-carboxylate] | – |

More lines, now with the values behind:

| Compound | IC50 [1] [nM] | IC50 [nM] |
| --- | --- | --- |
| COc1nccc(OC(=O)N2CCC(C(CC(C)C)NC(=O)c3ccc(F)cc3)CC2)c1F (centres unmarked) [Example 60, 3-fluoro-2-methoxypyridin-4-yl 4-{1-[(4-fluorophenyl)formamido]-3-methylbutyl}piperidine-1-carboxylate] | 50.1 | – |
| Cc1c(F)cccc1OC(=O)N1CCC(C(NC(=O)c2ccc(F)cc2)C2CC2)CC1 (centres unmarked) [Example 61, 3-fluoro-2-methylphenyl 4-{cyclopropyl[(4-fluorophenyl)formamido]methyl}piperidine-1-carboxylate] | 63.1 | – |
| CC(C)CC(NC(=O)c1ccc(F)cc1)C1CCN(C(=O)OCc2ccccc2)CC1 (centres unmarked) [Example 62, benzyl 4-{1-[(4-fluorophenyl)formamido]-3-methylbutyl}piperidine-1-carboxylate] | 63.1 | – |
| CC(C)CC(NC(=O)c1ccc(Cl)cc1)C1CCN(C(=O)OCc2nccs2)CC1 (centres unmarked) [Example 64, (1,3-thiazol-2-yl)methyl 4-{1-[(4-chlorophenyl)formamido]-3-methylbutyl}piperidine-1-carboxylate] | 79.4 | – |
| O=C(NC(c1ccncc1)C1CCN(C(=O)Oc2ccccc2)CC1)c1ccc(F)cc1 (centres unmarked) [Example 65, phenyl 4-{[(4-fluorophenyl)formamido](pyridin-4-yl)methyl}piperidine-1-carboxylate] | 100 | – |
| O=C(NC(C1CC1)C1CCN(C(=O)Oc2ccccc2)CC1)c1ccc(F)cc1 (centres unmarked) [Example 66, phenyl 4-{cyclopropyl[(4-fluorophenyl)formamido]methyl}piperidine-1-carboxylate] | 100 | – |
| CC(C)C[C@H](NC(=O)c1ccc(Cl)cc1)C1CCN(C(=O)Oc2ccccc2)CC1 [Example 67, phenyl 4-[(1S)-1-[(4-chlorophenyl)formamido]-3-methylbutyl]piperidine-1-carboxylate] | 100 | – |
| Cc1c(F)cccc1OC(=O)N1CCC([C@@H](C)NC(=O)c2ccc(Cl)cc2)CC1 [Example 68, 3-fluoro-2-methylphenyl 4-[(1R)-1-[(4-chlorophenyl)formamido]ethyl]piperidine-1-carboxylate] | 126 | – |
| CC(C)C[C@H](NC(=O)c1ccc(F)cc1)C1CCN(C(=O)Oc2ccccc2)CC1 [Example 69, phenyl 4-[(1S)-1-[(4-fluorophenyl)formamido]-3-methylbutyl]piperidine-1-carboxylate] | 126 | – |
| O=C(NC(C1CC1)C1CCN(C(=O)Oc2ccnc(F)c2)CC1)c1ccc(F)cc1 (centres unmarked) [Example 71, 2-fluoropyridin-4-yl 4-{cyclopropyl[(4-fluorophenyl)formamido]methyl}piperidine-1-carboxylate] | 158 | – |
| O=C(NC(c1ccncc1)C1CCN(C(=O)Oc2cccnc2F)CC1)c1ccc(F)cc1 (centres unmarked) [Example 72, 2-fluoropyridin-3-yl 4-{[(4-fluorophenyl)formamido](pyridin-4-yl)methyl}piperidine-1-carboxylate] | – | 158 |
| O=C(NC(c1ccccc1)C1CCN(C(=O)Oc2ccccc2)CC1)c1ccc(C(F)(F)F)cc1 (centres unmarked) [Example 73, phenyl 4-[phenyl({[4-(trifluoromethyl)phenyl]formamido})methyl]piperidine-1-carboxylate] | 158 | – |
| CC(NC(=O)c1ccc(F)cc1)C1CCN(C(=O)Oc2ccccc2)CC1 (centres unmarked) [Example 74, phenyl 4-{1-[(4-fluorophenyl)formamido]ethyl}piperidine-1-carboxylate] | 158 | – |
| CC(C)C[C@H](NC(=O)c1ccccc1)C1CCN(C(=O)Oc2ccccc2)CC1 [Example 75, phenyl 4-[(1S)-3-methyl-1-(phenylformamido)butyl]piperidine-1-carboxylate] | 158 | – |
| COCCC[C@@H](NC(=O)c1ccc(F)cc1)C1CCN(C(=O)Oc2cccnc2F)CC1 [Example 76, 2-fluoropyridin-3-yl 4-[(1R)-1-[(4-fluorophenyl)formamido]-4-methoxybutyl]piperidine-1-carboxylate] | – | 158 |
| O=C(NC(c1ccncc1)C1CCN(C(=O)Oc2ccccc2)CC1)c1ccccc1 (centres unmarked) [Example 77, phenyl 4-[(phenylformamido)(pyridin-4-yl)methyl]piperidine-1-carboxylate] | 200 | – |
| C#Cc1ccc(C(=O)NC(c2ccccc2)C2CCN(C(=O)OC(C)(C)C)CC2)cc1 (centres unmarked) [Example 78, tert-butyl 4-{[(4-ethynylphenyl)formamido](phenyl)methyl}piperidine-1-carboxylate] | 251 | – |
| CC(C)CC(NC(=O)c1ccc(F)cc1)C1CCN(C(=O)Oc2ccnc3ccccc23)CC1 (centres unmarked) [Example 79, quinolin-4-yl 4-{1-[(4-fluorophenyl)formamido]-3-methylbutyl}piperidine-1-carboxylate] | 316 | – |
| O=C(NC(c1ccncc1)C1CCN(C(=O)Oc2cccnc2)CC1)c1ccc(F)cc1 (centres unmarked) [Example 87, pyridin-3-yl 4-{[(4-fluorophenyl)formamido](pyridin-4-yl)methyl}piperidine-1-carboxylate] | – | 631 |

From US10927078B2, “Modulators of indoleamine 2,3-dioxygenase” (GLAXOSMITHKLINE INTELLECTUAL PROPERTY DEVELOPMENT LIMITED, priority 2017, dated 2021)
